Experimental findings from US6410568B1, “Porphyrins and their use as photosensitizer” (Astrid Schastak, priority 1998, dated 2002) are described below.

What all share (assay): Photodynamic effect in vitro, MTT test after irradiation
Background: Tetrazolium assays rely on reduction of a dye to a coloured formazan, in cell work by metabolically active cells.

The subject of assay [1] is highly-differentiated gallbladder carcinoma cell line (Wittier). It counts as cell-based, human. Particulars: THPTPS 0.2, 0.4, 0.8 mg/ml for 12 hours, Ti:Sa laser 771 nm, 15 J/cm^2. The method, then:
(§1) To examine the photodynamic effect in vitro, the above-mentioned cell lines were cultivated in a cell count of 2×10^5 C/ml in DMEM+10% FKS and incubated with the photosensitizer THPTPS in a concentration of 0.2, 0.4, 0.8 mg/ml (Wittier) or 0.4, 0.8, 1.6 mg/ml for 12 hours. Subsequently, they were irradiated with the light of a Ti:Sa leaser with a wavelength of 771 nm and a dose of 15 J/cm^2. […] Approximately 88% of the choroid melanoma cells were able to be killed by the irradiation.

Assay [2] has as its system bile duct adenocarcinoma cell line (Charies), undifferentiated to a high degree. It counts as cell-based. The conditions noted are these: THPTPS 0.4, 0.8, 1.6 mg/ml for 12 hours, Ti:Sa laser 771 nm, 15 J/cm^2. On the procedure:
as §1

Another assay deals with choroid melanoma cells. It counts as cell-based. The conditions noted are these: THPTPS 0.4, 0.8, 1.6 mg/ml for 12 hours, Ti:Sa laser 771 nm, 15 J/cm^2. On the procedure:
as §1

As for “5,10,15,20-tetrakis-(1-alkyl-pyridyl)-21H, 23H-7,8,17,18-tetrahydroporphyrin-tetra-p-toluene sulphonate [THPTPS]”, the results for the “cells dead (MTT test)” value in assay [1] and in assay [2] were “approx. 88%” and “approx. 84%”, respectively. Besides, in the assay on choroid melanoma cells, the “cells killed by the irradiation (MTT test)” value is listed as “approx. 88%”.
